The text below walks through data of patent US20100190788A1, “Amide derivatives as kinase inhitors” (priority 2005, published 2010).

A word on the IC50: it is the concentration that inhibits the measured activity by half. Lower therefore signals greater potency.

Structures are written as SMILES.

For one test, the target named is T1, human ROCKα/ROCKII mix (Homo sapiens, UniProt O75116).
T1 construct: purchased Upstate Biotechnology 14-451
T1 sequence (O75116 whole entry): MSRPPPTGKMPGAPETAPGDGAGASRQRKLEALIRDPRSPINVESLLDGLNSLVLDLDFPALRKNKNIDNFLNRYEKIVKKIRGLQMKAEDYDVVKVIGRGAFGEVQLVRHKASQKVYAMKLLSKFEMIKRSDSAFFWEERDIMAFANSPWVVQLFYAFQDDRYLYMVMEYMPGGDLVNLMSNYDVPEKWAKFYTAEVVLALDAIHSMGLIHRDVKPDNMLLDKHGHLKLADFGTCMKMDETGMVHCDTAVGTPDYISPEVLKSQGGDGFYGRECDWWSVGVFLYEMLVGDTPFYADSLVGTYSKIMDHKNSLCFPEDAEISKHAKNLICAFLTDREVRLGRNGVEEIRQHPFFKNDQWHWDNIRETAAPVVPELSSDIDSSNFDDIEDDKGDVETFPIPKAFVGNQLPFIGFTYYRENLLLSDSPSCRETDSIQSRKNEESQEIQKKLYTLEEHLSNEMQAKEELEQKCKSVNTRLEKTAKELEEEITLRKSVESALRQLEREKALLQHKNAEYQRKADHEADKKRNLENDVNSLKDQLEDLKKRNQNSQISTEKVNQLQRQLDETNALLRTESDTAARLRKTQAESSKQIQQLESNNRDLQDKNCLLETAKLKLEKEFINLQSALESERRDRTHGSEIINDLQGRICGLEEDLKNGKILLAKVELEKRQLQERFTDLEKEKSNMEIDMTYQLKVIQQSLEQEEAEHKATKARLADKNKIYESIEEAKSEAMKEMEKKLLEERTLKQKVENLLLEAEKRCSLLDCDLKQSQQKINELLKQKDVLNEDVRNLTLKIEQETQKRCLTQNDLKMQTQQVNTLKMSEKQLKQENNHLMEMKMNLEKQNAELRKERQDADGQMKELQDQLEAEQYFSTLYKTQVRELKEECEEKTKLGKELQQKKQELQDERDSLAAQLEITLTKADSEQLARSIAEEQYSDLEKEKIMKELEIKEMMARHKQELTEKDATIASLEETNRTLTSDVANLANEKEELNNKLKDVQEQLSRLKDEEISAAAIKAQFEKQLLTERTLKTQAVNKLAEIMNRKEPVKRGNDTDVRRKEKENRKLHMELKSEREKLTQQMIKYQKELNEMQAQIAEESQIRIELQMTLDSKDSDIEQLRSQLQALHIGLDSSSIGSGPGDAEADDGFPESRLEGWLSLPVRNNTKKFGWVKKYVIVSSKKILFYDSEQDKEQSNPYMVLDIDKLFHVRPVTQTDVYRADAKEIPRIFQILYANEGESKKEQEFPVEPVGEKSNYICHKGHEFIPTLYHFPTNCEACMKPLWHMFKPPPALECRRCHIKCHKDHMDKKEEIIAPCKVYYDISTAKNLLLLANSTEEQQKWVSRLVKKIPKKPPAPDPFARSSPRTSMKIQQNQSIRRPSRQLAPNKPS
Description: ROCK inhibition, fluorescence polarization (FP) assay with ROCK IMAP Kit. It counts as biochemical. Conditions: Table 1, compounds of Formula IV20. The method, then: The compounds were tested for inhibition of human ROCKα/ROCKII mix.
The inhibition assays were performed with a fluorescence polarization (FP) assay using the commercially available ROCK IMAP Kit from Molecular Devices (Product ID. No. R8093), essentially in accordance with the protocol supplied by the manufacturer. […] The enzyme mix ROCKα/ROCKII was obtained from Upstate Biotechnology (Product ID No 14-451).
In summary, all compounds were screened in the wells of a 384 well plate for enzymatic inhibition with concentrations varying from 100 μM to 0.3 nM using a stepwise 3 (or 2)-fold dilution.
To perform the assay, 1 μl of a solution of the compound to be tested in DMSO (at each concentration) was added to 2 μl of a solution of the enzyme in 10 mM Tris-HCl, 10 mM MgCl2, 0.1% BSA, 0.05% NaN3, pH 7.2. The final concentration of the enzyme was 2.6 nM.
After incubating for 30 minutes at RT, 2 μl of a mixture of ATP and the protein substrate in 10 mM Tris-HCl, 10 mM MgCl2, 0.1% BSA, 0.05% NaN3, pH 7.2 was added. The final concentration of the ATP was 10 μM and final concentration of protein substrate was 0.2 μM.
After incubating for 60 minutes at RT, 12 μl of the IMAP Binding Solution (mix of the IMAP Binding Buffer A (1×) and the IMAP Binding Reagent (from the ROCK IMAP kit)) was added.
The mixture thus obtained (total volume: 17 μl) was incubated for 60 minutes at RT, upon which the fluorescence polarization was measured using an automated plate reader (Perkin Elmer, Model Envision 2100-0010 HTS) with FP filters: excitation filter FITC FP 480 and emission filters FITC FP P-pol 535 and FITC FP S-pol 535 (Perkin-Elmer). The results were fitted to a curve using the XL-Fit algorithm and IC50 values were calculated for each fitted curve, again using the XL-Fit algorithm.
Background: In fluorescence polarisation assays a small probe gives low polarisation when free and higher when bound to something large.
`NC(C(=O)N1CCCC1c1cccc(F)c1)c1ccc(C(=O)Nc2ccncc2)cc1` (stereo not drawn) [Compound 83, 4-{1-amino-2-[2-(3-fluoro-phenyl)-pyrrolidin-1-yl]-2-oxo-ethyl}-N-pyridin-4-yl-benzamide] showed a half-inhibitory concentration (IC50) of under 0.5 µM.

Still in this test, the particulars now being: Table 2, compounds of Formula V20.
For the molecule `NC(CNS(=O)(=O)c1cccc2ccccc12)c1ccc(C(=O)Nc2ccncc2)cc1` (stereo not drawn) [Compound 77, 4-[1-amino-2-(naphthalene-1-sulfonylamino)-ethyl]-N-pyridin-4-yl-benzamide], the IC50 is under 0.5 µM.

`NC(CNS(=O)(=O)c1cccs1)c1ccc(C(=O)Nc2ccncc2)cc1` (stereo not drawn) [Compound 78, 4-[1-amino-2-(thiophene-2-sulfonylamino)-ethyl]-N-pyridin-4-yl-benzamide] came in with a half-inhibitory concentration (IC50) of under 0.5 µM.

Consider `Cc1noc(C)c1S(=O)(=O)NCC(N)c1ccc(C(=O)Nc2ccncc2)cc1` (stereo not drawn) [Compound 79, 4-[1-amino-2-(3,5-dimethyl-isoxazole-4-sulfonylamino)-ethyl]-N-pyridin-4-yl-benzamide], for which the IC50 was under 0.5 µM.

Take `Cc1nn(C)c(Cl)c1S(=O)(=O)NCC(N)c1ccc(C(=O)Nc2ccncc2)cc1` (stereo not drawn) [Compound 80, 4-[1-amino-2-(5-chloro-1,3-dimethyl-1H-pyrazole-4-sulfonylamino)-ethyl]-N-pyridin-4-yl-benzamide]: the IC50 was 0.5 to 5 µM.

In the case of `NC(CNS(=O)(=O)c1cccc2nonc12)c1ccc(C(=O)Nc2ccncc2)cc1` (stereo not drawn) [Compound 81, 4-[1-amino-2-(benzo[1,2,5]-oxadiazole-4-sulfonylamino)-ethyl]-N-pyridin-4-yl-benzamide], the IC50 was under 0.5 µM.

Molecule `NC(CNS(=O)(=O)c1cccc2nsnc12)c1ccc(C(=O)Nc2ccncc2)cc1` (stereo not drawn) [Compound 82, 4-[1-amino-2-(benzo[1,2,5]-thiadiazole-4-sulfonylamino)-ethyl]-N-pyridin-4-yl-benzamide] displayed an IC50 of under 0.5 µM.

The test is the same for the next values; noted with them: Table 3, compounds of Formula III20.
Take `NC(CC(=O)N1CCCC1c1ccccc1)c1ccc(C(=O)Nc2ccncc2)cc1` (stereo not drawn) [Compound 84, 4-[1-amino-3-oxo-3-(2-phenyl-pyrrolidin-1-yl)-propyl]-N-pyridin-4-yl-benzamide]: the IC50 is under 0.5 µM.

`NC(CC(=O)N1CCCC1c1cccc(Cl)c1)c1ccc(C(=O)Nc2ccncc2)cc1` (stereo not drawn) [Compound 85, 4-{1-amino-3-[2-(3-chloro-phenyl)-pyrrolidin-1-yl]-3-oxo-propyl}-N-pyridin-4-yl-benzamide] yielded a half-inhibitory concentration (IC50) of under 0.5 µM.

`NC(CC(=O)N1CCCC1c1ccc(F)cc1)c1ccc(C(=O)Nc2ccncc2)cc1` (stereo not drawn) [Compound 86, 4-{1-amino-3-[2-(4-fluoro-phenyl)-pyrrolidin-1-yl]-3-oxo-propyl}-N-pyridin-4-yl-benzamide]: the half-inhibitory concentration (IC50) is under 0.5 µM.

The molecule `NC(CC(=O)N1CCCC1c1cccc(F)c1)c1ccc(C(=O)Nc2ccncc2)cc1` (stereo not drawn) [Compound 87, 4-{1-amino-3-[2-(3-fluoro-phenyl)-pyrrolidin-1-yl]-3-oxo-propyl}-N-pyridin-4-yl-benzamide] displayed a 50% inhibitory concentration (IC50) of under 0.5 µM.

Take `NC(CC(=O)N1CCCC1c1cc(F)ccc1F)c1ccc(C(=O)Nc2ccncc2)cc1` (stereo not drawn) [Compound 88, 4-{1-amino-3-[2-(2,5-difluoro-phenyl)-pyrrolidin-1-yl]-3-oxo-propyl}-N-pyridin-4-yl-benzamide]: the IC50 is under 0.5 µM.

For `NC(CC(=O)N1CCCC1c1ccc(F)cc1F)c1ccc(C(=O)Nc2ccncc2)cc1` (stereo not drawn) [Compound 89, 4-{1-amino-3-[2-(2,4-difluoro-phenyl)-pyrrolidin-1-yl]-3-oxo-propyl}-N-pyridin-4-yl-benzamide], the IC50 is under 0.5 µM.

Regarding `NC(CC(=O)N1CCCC1c1ccc(Cl)cc1)c1ccc(C(=O)Nc2ccncc2)cc1` (stereo not drawn) [Compound 90, 4-{1-amino-3-[2-(4-chloro-phenyl)-pyrrolidin-1-yl]-3-oxo-propyl}-N-pyridin-4-yl-benzamide], the IC50 is under 0.5 µM.

With `NC(CC(=O)N1CCCC1c1ccc(Cl)c(Cl)c1)c1ccc(C(=O)Nc2ccncc2)cc1` (stereo not drawn) [Compound 91, 4-{1-amino-3-[2-(3,4-dichloro-phenyl)-pyrrolidin-1-yl]-3-oxo-propyl}-N-pyridin-4-yl-benzamide], the IC50 is under 0.5 µM.

In turn, `NC(CC(=O)N1CCCCC1c1ccccc1)c1ccc(C(=O)Nc2ccncc2)cc1` (stereo not drawn) [Compound 92, 4-[1-amino-3-oxo-3-(2-phenyl-piperidin-1-yl)-propyl]-N-pyridin-4-yl-benzamide] had an IC50 of under 0.5 µM.

In the case of `NC(CC(=O)N1CCCCC1c1cccc2ccccc12)c1ccc(C(=O)Nc2ccncc2)cc1` (stereo not drawn) [Compound 93, 4-[1-amino-3-(2-naphthalen-1-yl-piperidin-1-yl)-3-oxo-propyl]-N-pyridin-4-yl-benzamide], the IC50 is under 0.5 µM.

As to `NC(CC(=O)N1CCCCC1c1ccc(Cl)cc1)c1ccc(C(=O)Nc2ccncc2)cc1` (stereo not drawn) [Compound 94, 4-{1-amino-3-[2-(4-chloro-phenyl)-piperidin-1-yl]-3-oxo-propyl}-N-pyridin-4-yl-benzamide], the half-inhibitory concentration (IC50) was under 0.5 µM.

Molecule `NC(CC(=O)N1CCCCC1c1cc(Cl)ccc1Cl)c1ccc(C(=O)Nc2ccncc2)cc1` (stereo not drawn) [Compound 95, 4-{1-amino-3-[2-(2,5-dichloro-phenyl)-piperidin-1-yl]-3-oxo-propyl}-N-pyridin-4-yl-benzamide] registered a half-maximal inhibitory concentration (IC50) of under 0.5 µM.

Regarding `COc1ccc(Cl)cc1C1CCCCN1C(=O)CC(N)c1ccc(C(=O)Nc2ccncc2)cc1` (stereo not drawn) [Compound 96, 4-{1-amino-3-[2-(5-chloro-2-methoxy-phenyl)-piperidin-1-yl]-3-oxo-propyl}-N-pyridin-4-yl-benzamide], the IC50 is under 0.5 µM.

Consider `NC(CC(=O)N1CCCCC1c1ccc(F)cc1)c1ccc(C(=O)Nc2ccncc2)cc1` (stereo not drawn) [Compound 97, 4-{1-amino-3-[2-(4-fluoro-phenyl)-piperidin-1-yl]-3-oxo-propyl}-N-pyridin-4-yl-benzamide], for which the IC50 was under 0.5 µM.

In the case of `COc1cccc(C2CCCCN2C(=O)CC(N)c2ccc(C(=O)Nc3ccncc3)cc2)c1` (stereo not drawn) [Compound 98, 4-{1-amino-3-[2-(3-methoxy-phenyl)-piperidin-1-yl]-3-oxo-propyl}-N-pyridin-4-yl-benzamide], the IC50 was under 0.5 µM.

The molecule `NC(CC(=O)N1CCOCC1c1ccccc1)c1ccc(C(=O)Nc2ccncc2)cc1` (stereo not drawn) [Compound 99, 4-[1-Amino-3-oxo-3-(3-phenyl-morpholin-4-yl)-propyl]-N-pyridin-4-yl-benzamide] gave an IC50 of under 0.5 µM.

`NC(CC(=O)N1CCOCC1c1ccc(Cl)cc1)c1ccc(C(=O)Nc2ccncc2)cc1` (stereo not drawn) [Compound 100, 4-{1-amino-3-[3-(4-chloro-phenyl)-morpholin-4-yl]-3-oxo-propyl}-N-pyridin-4-yl-benzamide]: the IC50 is under 0.5 µM.

The molecule `NC(CC(=O)N1CCOCC1c1ccc(F)cc1)c1ccc(C(=O)Nc2ccncc2)cc1` (stereo not drawn) [Compound 101, 4-{1-amino-3-[3-(4-fluoro-phenyl)-morpholin-4-yl]-3-oxo-propyl}-N-pyridin-4-yl-benzamide] gave a half-inhibitory concentration (IC50) of under 0.5 µM.

`NC(CC(=O)N1CCc2c(Cl)cccc2C1)c1ccc(C(=O)Nc2ccncc2)cc1` (stereo not drawn) [Compound 102, 4-[1-amino-3-(5-chloro-3,4-dihydro-1H-isoquinolin-2-yl)-3-oxo-propyl]-N-pyridin-4-yl-benzamide] registered an IC50 of under 0.5 µM.

Consider `NC(CC(=O)N1CCc2ccc(Cl)cc2C1)c1ccc(C(=O)Nc2ccncc2)cc1` (stereo not drawn) [Compound 103, 4[1-amino-3-(7-chloro-3,4-dihydro-1H-isoquinolin-2-yl)-3-oxo-propyl]-N-pyridin-4-yl-benzamide], for which the half-inhibitory concentration (IC50) was under 0.5 µM.
